Laboratory results as given in patent US20190016689A1, “NOVEL FLUORINATED QUINAZOLINE DERIVATIVES AS EGFR INHIBITORS” (TRILLIUM THERAPEUTICS INC., priority 2016, published 2019).

test system: not listed separately; test: Evaluation of P-gp efflux: Caco-2 permeability; details: human, Caco-2, pH 7.4
Experimental: (§1) At this stage of growth, cell monolayers were fully polarized and differentiated.
(§2) The permeability assay buffer was Hanks Balanced Salt Solution containing 10 mM HEPES and 15 mM glucose at a pH of 7.4. The dosing buffer contained 5 μM metoprolol (positive control), 5 μM atenolol (negative control) and 100 μM lucifer yellow. The buffer in the receiver chamber also contained 1% bovine serum albumin (BSA). The dosing solution concentration was 5 μM in the assay buffer. Digoxin (20 μM) was used as Pgp substrate control.
(§3) The known Pgp inhibitor was co-dosed at 50 μM with compound at 5 μM.
(§4) Cell monolayers were dosed on the apical side (A-to-B) or basolateral side (B-to-A) and incubated at 37° C. in a shaker (65 rpm). Samples were taken from the donor and receiver chambers at 120 minutes. Each determination was performed in duplicate.
(§5) Narrow-window mass extraction LC/MS analysis was performed for all samples from this study using a Waters Xevo quadrupole time-of-flight (QTof) mass spectrometer, to determine relative peak areas of parent compound. The percent of transported drug was calculated based on these peak areas, relative to the initial, dosing concentration.

What does the source list for `C[C@H]1O[C@@H](O[C@H]2[C@@H](O)C[C@H](O[C@H]3[C@@H](O)C[C@H](O[C@H]4CC[C@@]5(C)[C@H](CC[C@@H]6[C@@H]5C[C@@H](O)[C@]5(C)[C@@H](C7=CC(=O)OC7)CC[C@]65O)C4)O[C@@H]3C)O[C@@H]2C)C[C@H](O)[C@@H]1O` [Digoxin]?
Papp A→B at 120 min, 5 µM: 7.5 nm/s; Papp B→A at 120 min, 5 µM: 227 nm/s

What does the source list for `COc1cc2nc(N3CCN(C(=O)c4ccco4)CC3)nc(N)c2cc1OC` [Prazosin]?
Papp A→B at 120 min, 5 µM: 217 nm/s; Papp B→A at 120 min, 5 µM: 347 nm/s

With `CC(C)NCC(O)COc1cccc2ccccc12` (stereo not drawn) [Propranolol] as the compound, how does the Papp A→B at 120 min, 5 µM read?
The Papp A→B at 120 min, 5 µM was 211 nm/s.

And the Papp B→A at 120 min, 5 µM?
Its Papp B→A at 120 min, 5 µM is 158 nm/s.

test system: P-gp; test: Evaluation of P-gp efflux: Caco-2 permeability; details: human, Caco-2, pH 7.4
Experimental: as §1, §2, §3, §4, §5

Which efflux ratio at 120 min, 5 µM does the source give for `C[C@H]1O[C@@H](O[C@H]2[C@@H](O)C[C@H](O[C@H]3[C@@H](O)C[C@H](O[C@H]4CC[C@@]5(C)[C@H](CC[C@@H]6[C@@H]5C[C@@H](O)[C@]5(C)[C@@H](C7=CC(=O)OC7)CC[C@]65O)C4)O[C@@H]3C)O[C@@H]2C)C[C@H](O)[C@@H]1O` [Digoxin] here?
The efflux ratio at 120 min, 5 µM was 30.4.

For `COc1cc2nc(N3CCN(C(=O)c4ccco4)CC3)nc(N)c2cc1OC` [Prazosin], which efflux ratio at 120 min, 5 µM is on record?
Its efflux ratio at 120 min, 5 µM is 1.59.

With `CC(C)NCC(O)COc1cccc2ccccc12` (stereo not drawn) [Propranolol] as the compound, how does the efflux ratio at 120 min, 5 µM read?
The efflux ratio at 120 min, 5 µM was 0.75.

target: EGFR (T790M) (Homo sapiens, UniProt P00533, T790M, form not given); test: Kinase HotSpot profiling (33P-ATP filter binding); type: biochemical; details: not given
Experimental: Base Reaction buffer; 20 mM Hepes (pH 7.5), 10 mM MgCl2, 1 mM EGTA, 0.02% Brij35, 0.02 mg/ml BSA, 0.1 mM Na3VO4, 2 mM DTT, 1% DMSO • Required cofactors are added individually to each kinase reaction
1. The indicated substrate was prepared in fresh Base Reaction Buffer.
2. Any required cofactors were added to the substrate solution above.
3. Indicated kinase was added into the substrate solution and gently mixed.
4. Compounds in DMSO were added into the kinase reaction mixture by Acoustic technology (Echo550; nanoliter range) and incubated for 20 minutes at room temperature.
5. 33P-ATP (specific activity 10 μCi/μl) was added into the reaction mixture to initiate the reaction.
6. The kinase reaction was incubated for 2 hours at room temperature
7. Reactions were spotted onto P81 ion exchange paper.
8. Kinase activity was detected by filter-binding method.
IC50 (nM) concentrations are illustrated in Table 5. This assay confirms that compounds of the application are effective inhibitors of the target EGFR receptors.

Sequence of EGFR (T790M) (P00533 whole entry T790M, form open): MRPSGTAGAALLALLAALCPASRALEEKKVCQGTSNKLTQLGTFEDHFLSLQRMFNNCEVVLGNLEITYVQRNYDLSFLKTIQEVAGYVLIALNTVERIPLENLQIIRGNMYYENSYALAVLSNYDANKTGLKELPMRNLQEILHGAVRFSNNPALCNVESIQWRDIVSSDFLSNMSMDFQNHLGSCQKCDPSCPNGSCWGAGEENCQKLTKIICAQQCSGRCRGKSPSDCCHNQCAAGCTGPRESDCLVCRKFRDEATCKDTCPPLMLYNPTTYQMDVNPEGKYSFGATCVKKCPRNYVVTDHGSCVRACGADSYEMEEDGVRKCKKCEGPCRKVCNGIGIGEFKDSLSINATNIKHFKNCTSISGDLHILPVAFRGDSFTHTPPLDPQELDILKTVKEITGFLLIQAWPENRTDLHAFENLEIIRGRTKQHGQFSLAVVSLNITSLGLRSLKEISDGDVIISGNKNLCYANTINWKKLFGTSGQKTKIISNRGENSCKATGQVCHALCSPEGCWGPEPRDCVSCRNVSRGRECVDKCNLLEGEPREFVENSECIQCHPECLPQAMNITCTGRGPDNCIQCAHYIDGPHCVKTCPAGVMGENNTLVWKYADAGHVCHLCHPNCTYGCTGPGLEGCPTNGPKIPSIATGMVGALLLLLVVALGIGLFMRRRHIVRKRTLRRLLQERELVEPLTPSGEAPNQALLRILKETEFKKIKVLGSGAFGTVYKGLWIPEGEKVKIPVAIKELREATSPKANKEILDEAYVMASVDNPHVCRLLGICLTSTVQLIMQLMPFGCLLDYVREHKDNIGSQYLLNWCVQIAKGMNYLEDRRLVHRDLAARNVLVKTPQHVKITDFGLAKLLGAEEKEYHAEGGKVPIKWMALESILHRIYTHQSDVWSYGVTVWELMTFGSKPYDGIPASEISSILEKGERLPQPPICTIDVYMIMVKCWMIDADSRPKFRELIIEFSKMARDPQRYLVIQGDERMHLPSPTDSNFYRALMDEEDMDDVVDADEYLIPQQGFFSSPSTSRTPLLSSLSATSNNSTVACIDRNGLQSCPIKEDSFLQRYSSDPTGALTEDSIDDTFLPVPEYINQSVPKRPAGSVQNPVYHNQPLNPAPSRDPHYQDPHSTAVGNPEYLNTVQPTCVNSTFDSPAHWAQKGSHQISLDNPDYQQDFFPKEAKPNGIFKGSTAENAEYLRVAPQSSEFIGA

For `CN(C)C/C=C/C(=O)Nc1cc2c(Nc3ccc(Cl)c(Cl)c3F)ncnc2cc1OCCOC(F)F` [Example I-2, (E)-N-[4-(3,4-dichloro-2-fluoro-anilino)-7-[2-(difluoromethoxy)ethoxy]quinazolin-6-yl]-4-(dimethylamino)but-2-enamide], which IC50 is on record?
Its IC50 is 16.4 nM.

For `O=C(/C=C/CN1CCOCC1)Nc1cc2c(Nc3ccc(Cl)c(Cl)c3F)ncnc2cc1OCCOC(F)F` [Example I-3, (E)-N-[4-(3,4-dichloro-2-fluoro-anilino)-7-[2-(difluoromethoxy)ethoxy]quinazolin-6-yl]-4-morpholino-but-2-enamide], which IC50 is on record?
Its IC50 is 5.56 nM.

For `CN(C)C/C=C/C(=O)Nc1cc2c(Nc3cccc(Cl)c3F)ncnc2cc1OCCOC(F)F` [Example I-5, (E)-N-[4-(3-chloro-2-fluoro-anilino)-7-[2-(difluoromethoxy)ethoxy]quinazolin-6-yl]-4-(dimethylamino)but-2-enamide], which IC50 is on record?
The IC50 was 0.707 nM.

For `O=C(/C=C/CN1CCOCC1)Nc1cc2c(Nc3cccc(Cl)c3F)ncnc2cc1OCCOC(F)F` [Example I-7, (E)-N-[4-(3-chloro-2-fluoro-anilino)-7-[2-(difluoromethoxy)-ethoxy]quinazolin-6-yl]-4-morpholino-but-2-enamide], which IC50 is on record?
The IC50 was 10.5 nM.

With `O=C(/C=C/CN1CCC(OC(F)F)CC1)Nc1cc2c(Nc3cccc(Cl)c3F)ncnc2cc1OCCOC(F)F` [Example I-8, (E)-N-[4-(3-chloro-2-fluoro-anilino)-7-[2-(difluoromethoxy)-ethoxy]quinazolin-6-yl]-4-[4-(difluoromethoxy)-1-piperidyl]but-2-enamide] as the compound, how does the IC50 read?
The IC50 was 79.5 nM.

For `CN(C)C/C=C/C(=O)Nc1cc2c(Nc3ccc(F)c(Cl)c3F)ncnc2cc1OCCOC(F)F` [Example I-9, (E)-N-[4-(3-chloro-2,4-difluoro-anilino)-7-[2-(difluoromethoxy)-ethoxy]quinazolin-6-yl]-4-(dimethylamino)but-2-enamide], which IC50 is on record?
Its IC50 is 0.0597 nM.

Which IC50 does the source give for `O=C(/C=C/CN1CCCCC1)Nc1cc2c(Nc3ccc(F)c(Cl)c3F)ncnc2cc1OCCOC(F)F` [Example I-10, (E)-N-[4-(3-chloro-2,4-difluoro-anilino)-7-[2-(difluoromethoxy)ethoxy]quinazolin-6-yl]-4-(1-piperidyl)but-2-enamide] here?
Its IC50 is 0.156 nM.

For `O=C(/C=C/CN1CC(F)(F)C1)Nc1cc2c(Nc3ccc(F)c(Cl)c3F)ncnc2cc1OCCOC(F)F` [Example I-16, (E)-N-[4-(3-chloro-2,4-difluoro-anilino)-7-[2-(difluoromethoxy)ethoxy]quinazolin-6-yl]-4-(3,3-difluoroazetidin-1-yl)but-2-enamide], which IC50 is on record?
The IC50 was 13.7 nM.

For `COc1cc2ncnc(Nc3ccc(Cl)c(Cl)c3F)c2cc1NC(=O)/C=C/CN1CCC(OC(F)F)CC1` [Example I-17, (E)-N-[4-(3,4-dichloro-2-fluoro-anilino)-7-methoxy-quinazolin-6-yl]-4-[4-(difluoromethoxy)-1-piperidyl]but-2-enamide], which IC50 is on record?
The IC50 was 817 nM.

With `COc1cc2ncnc(Nc3ccc(F)c(Cl)c3)c2cc1NC(=O)/C=C/CN1CCC(OC(F)F)CC1` [Example I-18, (E)-N-[4-(3-chloro-4-fluoro-anilino)-7-methoxy-quinazolin-6-yl]-4-[4-(difluoromethoxy)-1-piperidyl]but-2-enamide] as the compound, how does the IC50 read?
Its IC50 is 62.8 nM.

For `O=C(/C=C/CN1CCC(OC(F)F)CC1)Nc1cc2c(Nc3ccc(F)c(Cl)c3)ncnc2cc1OCCOC(F)F` [Example I-22, (E)-N-[4-(3-chloro-4-fluoro-anilino)-7-[2-(difluoromethoxy)ethoxy]quinazolin-6-yl]-4-[4-(difluoromethoxy)-1-piperidyl]but-2-enamide], which IC50 is on record?
Its IC50 is 13.1 nM.

Which IC50 does the source give for `C#Cc1cccc(Nc2ncnc3cc(OCCOC(F)F)c(NC(=O)/C=C/CN(C)C)cc23)c1F` [Example I-25, (E)-N-[7-[2-(difluoromethoxy)ethoxy]-4-(3-ethynyl-2-fluoro-anilino)quinazolin-6-yl]-4-(dimethylamino)but-2-enamide] here?
Its IC50 is 0.679 nM.
